The results in this text go back to PMC5967881 (Journal of medicinal chemistry, 2017).

Where two headings read alike, the source gives them in different places. Bounds are passed on as bounds.

The subject of assay [1] is A/California/07/2009 (H1N1) virus. As to the kind of experiment: microbe, parasite or virus in culture. Format: cell-based, influenza A virus. The note with it: for activity at 10 µM: read-out: % plaque formation at 10 μM drug concentration against A/California/07/2009 (H1N1); for EC50: read-out: EC50 against A/California/07/2009 (H1N1).
In assay [2] the target is wild-type AM2 channel (AM2-WT) (Influenza A virus, UniProt P0DOF5). The experiment in a line: biochemical. To be noted: pH 5.5, read-out: Electrophysiological TEVC assay (% WT channel inhibition), 100 μM, two-minute time point, pH 5.5, Xenopus laevis oocytes.
Chain of wild-type AM2 channel (AM2-WT) (P0DOF5 whole entry): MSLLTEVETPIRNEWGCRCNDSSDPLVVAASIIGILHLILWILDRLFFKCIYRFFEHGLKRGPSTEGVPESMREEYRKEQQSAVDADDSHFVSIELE

The inhibition is the percentage by which the read-out fell short of the control.

For `Oc1ccccc1-c1cc(CNC23CC4CC(CC(C4)C2)C3)no1` [9h, 2-(3-(((adamantan-1-yl)amino)methyl)isoxazol-5-yl)phenol], in assay [1] (Influenza A virus, H1N1, MDCK), the activity at 10 µM was less than 20% and the EC50 was in the range of 0.1 to 1.2 µM. Moreover, the inhibition at 100 µM in assay [2] is not above 30%.
With `COc1sccc1-c1cc(CNC23CC4CC(CC(C4)C2)C3)no1` [9t, N-((5-(2-methoxythiophen-3-yl)isoxazol-3-yl)methyl)adamantan-1-amine], the activity at 10 µM in assay [1] (Influenza A virus, H1N1, MDCK) is less than 20%. Further, in assay [2], the inhibition at 100 µM was not above 30%.
Regarding `Clc1cc(-c2cc(CNC34CC5CC(CC(C5)C3)C4)no2)cs1` [9r, N-((5-(5-chlorothiophen-3-yl)isoxazol-3-yl)methyl)adamantan-1-amine], in assay [1] (Influenza A virus, H1N1, MDCK), the activity at 10 µM was less than 20%.
`Clc1ccc(-c2cc(CNC34CC5CC(CC(C5)C3)C4)no2)s1` [9q, N-((5-(5-chlorothiophen-2-yl)isoxazol-3-yl)methyl)adamantan-1-amine]: in assay [1], the “% plaque formation at 10 μM drug concentration against A/California/07/2009 (H1N1)” value amounted to 0% and the EC50 was found to be 0.1 ± 0.03 µM. Further, in assay [1] (Influenza A virus, H1N1, MDCK), the activity at 10 µM is less than 20%.
On to `c1ccc(-c2cc(CNC34CC5CC(CC(C5)C3)C4)no2)cc1` [9a, N-[(5-phenyl-1,2-oxazol-3-yl)methyl]adamantan-1-amine], for which, in assay [1] (Influenza A virus, H1N1, MDCK), the activity at 10 µM is less than 20% and the EC50 lay in the range of 0.1 to 1.2 µM. Moreover, the inhibition at 100 µM in assay [2] is not above 30%.
Turning to `Clc1cc(-c2cc(CNC34CC5CC(CC(C5)C3)C4)no2)c(Cl)s1` [9u, N-((5-(2,5-dichlorothiophen-3-yl)isoxazol-3-yl)methyl)adamantan-1-amine], the activity at 10 µM in assay [1] (Influenza A virus, H1N1, MDCK) was less than 20%.
Consider `OC12CC3CC(C1)CC(NCc1cc(-c4ccccc4Cl)on1)(C3)C2` [9d, 3-({[5-(2-chlorophenyl)-1,2-oxazol-3-yl]methyl}amino)adamantan-1-ol], for which, in assay [1] (Influenza A virus, H1N1, MDCK), the activity at 10 µM is less than 20% and the EC50 lay in the range of 0.1 to 1.2 µM. The inhibition at 100 µM in assay [2] was not above 30%.
Turning to `CSc1ccccc1-c1cc(CNC23CC4CC(CC(O)(C4)C2)C3)no1` [9f, 3-[({5-[2-(methylsulfanyl)phenyl]-1,2-oxazol-3-yl}methyl)amino]adamantan-1-ol], in assay [1] (Influenza A virus, H1N1, MDCK), the activity at 10 µM was less than 20% and the EC50 is 0.1 to 1.2 µM. Further, the inhibition at 100 µM in assay [2] was not above 30%.
As to “N-((5-(2-(methylsulfonyl)phenyl)isoxazol-3-yl)methyl)adamantan-1-amine [9m]”, in assay [1], the “% plaque formation at 10 μM drug concentration against A/California/07/2009 (H1N1)” value is on record as 57.1 ± 2.4%.
For the compound `OC12CC3CC(C1)CC(NCc1cc(-c4cc(Cl)sc4Cl)on1)(C3)C2` [9v, 3-({[5-(2,5-dichlorothiophen-3-yl)-1,2-oxazol-3-yl]methyl}amino)adamantan-1-ol], the activity at 10 µM in assay [1] (Influenza A virus, H1N1, MDCK) is less than 20%.
